Measurements reported in PubChem BioAssay AID1963973 (Molecular Pharmacology Branch, DTP, NCI, 2024).
Values belong to the compound of their own block, whether it stands above or below them.

System: 883617-216-R-J1-PDC tumor spheroids, viability
Test: Anticancer human tumor 883617-216-R-J1-PDC patient-derived bladder carcinoma cell line growth inhibition [PI3K]
Conditions: spheroids with HUVEC and MSC; for IC50: curve of first compound; for viability, T/C: stronger effect = lower value
How it was run: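 We assembled tumor spheroids that included a stromal compartment of HUVEC and MSCs, then exposed them to targeted agents alone and together with PI3K pathway inhibitors. Concentration series descended by half-log from clinically achievable Cmax levels. Viability served as the endpoint.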
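Note: spheroids exposed to agents for 7 days before the viability read.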

IC50 (second compound 0.00316 µM): > 10000 nM
IC50 (second compound 0.01 µM): > 10000 nM
IC50 (second compound 0.0316 µM): < 31.6 nM
IC50 (second compound 0.1 µM): < 31.6 nM
IC50 (second compound 0.316 µM): < 31.6 nM
IC50 (second compound 1 µM): < 31.6 nM
SMILES: CC1(C)CCC(CN2CCN(c3ccc(C(=O)NS(=O)(=O)c4ccc(NCC5CCOCC5)c([N+](=O)[O-])c4)c(Oc4cnc5[nH]ccc5c4)c3)CC2)=C(c2ccc(Cl)cc2)C1 + COc1c(OCCCN2CCOCC2)ccc2c3n(c(=NC(=O)c4cnc(N)nc4)nc12)CCN3
viability, T/C (second compound 0.00316 µM, first compound 0.0316 µM): 86.9%
viability, T/C (second compound 0.00316 µM, first compound 0.1 µM): 84.3%
viability, T/C (second compound 0.00316 µM, first compound 0.316 µM): 77.5%
viability, T/C (second compound 0.00316 µM, first compound 1 µM): 83.7%
viability, T/C (second compound 0.00316 µM, first compound 3.16 µM): 82.7%
viability, T/C (second compound 0.00316 µM, first compound 10 µM): 110%
viability, T/C (second compound 0.01 µM, first compound 0.0316 µM): 68%
viability, T/C (second compound 0.01 µM, first compound 0.1 µM): 67.9%
viability, T/C (second compound 0.01 µM, first compound 0.316 µM): 66.5%
viability, T/C (second compound 0.01 µM, first compound 1 µM): 68.5%
viability, T/C (second compound 0.01 µM, first compound 3.16 µM): 66.1%
viability, T/C (second compound 0.01 µM, first compound 10 µM): 58.2%
viability, T/C (second compound 0.0316 µM, first compound 0.0316 µM): 32.3%
viability, T/C (second compound 0.0316 µM, first compound 0.1 µM): 35.8%
viability, T/C (second compound 0.0316 µM, first compound 0.316 µM): 40.5%
viability, T/C (second compound 0.0316 µM, first compound 1 µM): 39.1%
viability, T/C (second compound 0.0316 µM, first compound 3.16 µM): 35.3%
viability, T/C (second compound 0.0316 µM, first compound 10 µM): 35.5%
viability, T/C (second compound 0.1 µM, first compound 0.0316 µM): 27.5%
viability, T/C (second compound 0.1 µM, first compound 0.1 µM): 15.1%
viability, T/C (second compound 0.1 µM, first compound 0.316 µM): 17%
viability, T/C (second compound 0.1 µM, first compound 1 µM): 17.8%
viability, T/C (second compound 0.1 µM, first compound 3.16 µM): 15.2%
viability, T/C (second compound 0.1 µM, first compound 10 µM): 13.1%
viability, T/C (second compound 0.316 µM, first compound 0.0316 µM): 6.5%
viability, T/C (second compound 0.316 µM, first compound 0.1 µM): 4.66%
viability, T/C (second compound 0.316 µM, first compound 0.316 µM): 5.31%
viability, T/C (second compound 0.316 µM, first compound 1 µM): 5.04%
viability, T/C (second compound 0.316 µM, first compound 3.16 µM): 4.63%
viability, T/C (second compound 0.316 µM, first compound 10 µM): 4.02%
viability, T/C (second compound 1 µM, first compound 0.0316 µM): 3.29%
viability, T/C (second compound 1 µM, first compound 0.1 µM): 2.86%
viability, T/C (second compound 1 µM, first compound 0.316 µM): 2.77%
viability, T/C (second compound 1 µM, first compound 1 µM): 3.15%
viability, T/C (second compound 1 µM, first compound 3.16 µM): 2.53%
viability, T/C (second compound 1 µM, first compound 10 µM): 2.82%

IC50 (second compound 0.00316 µM): 40.6 nM
IC50 (second compound 0.01 µM): 34.9 nM
IC50 (second compound 0.0316 µM): 10.3 nM
IC50 (second compound 0.1 µM): 13.4 nM
IC50 (second compound 0.316 µM): < 9.49 nM
IC50 (second compound 1 µM): < 9.49 nM
SMILES: Cn1cnc2c(F)c(Nc3ccc(Br)cc3Cl)c(C(=O)NOCCO)cc21 + CC(Nc1ccc2c(c1)OCCn1cc(N3C(=O)OCC3C(F)F)nc1-2)C(N)=O
viability, T/C (second compound 0.00316 µM, first compound 0.00949 µM): 64.5%
viability, T/C (second compound 0.00316 µM, first compound 0.03 µM): 57.4%
viability, T/C (second compound 0.00316 µM, first compound 0.0949 µM): 35.1%
viability, T/C (second compound 0.00316 µM, first compound 0.3 µM): 35.3%
viability, T/C (second compound 0.00316 µM, first compound 0.949 µM): 26.5%
viability, T/C (second compound 0.00316 µM, first compound 3 µM): 19.6%
viability, T/C (second compound 0.01 µM, first compound 0.00949 µM): 62.9%
viability, T/C (second compound 0.01 µM, first compound 0.03 µM): 47.3%
viability, T/C (second compound 0.01 µM, first compound 0.0949 µM): 45.9%
viability, T/C (second compound 0.01 µM, first compound 0.3 µM): 30.6%
viability, T/C (second compound 0.01 µM, first compound 0.949 µM): 26.8%
viability, T/C (second compound 0.01 µM, first compound 3 µM): 19.4%
viability, T/C (second compound 0.0316 µM, first compound 0.00949 µM): 51.8%
viability, T/C (second compound 0.0316 µM, first compound 0.03 µM): 36%
viability, T/C (second compound 0.0316 µM, first compound 0.0949 µM): 25%
viability, T/C (second compound 0.0316 µM, first compound 0.3 µM): 25.2%
viability, T/C (second compound 0.0316 µM, first compound 0.949 µM): 20.1%
viability, T/C (second compound 0.0316 µM, first compound 3 µM): 14.2%
viability, T/C (second compound 0.1 µM, first compound 0.00949 µM): 61.2%
viability, T/C (second compound 0.1 µM, first compound 0.03 µM): 21.9%
viability, T/C (second compound 0.1 µM, first compound 0.0949 µM): 23.4%
viability, T/C (second compound 0.1 µM, first compound 0.3 µM): 18%
viability, T/C (second compound 0.1 µM, first compound 0.949 µM): 16.7%
viability, T/C (second compound 0.1 µM, first compound 3 µM): 7.35%
viability, T/C (second compound 0.316 µM, first compound 0.00949 µM): 22.1%
viability, T/C (second compound 0.316 µM, first compound 0.03 µM): 16.2%
viability, T/C (second compound 0.316 µM, first compound 0.0949 µM): 10.5%
viability, T/C (second compound 0.316 µM, first compound 0.3 µM): 11.5%
viability, T/C (second compound 0.316 µM, first compound 0.949 µM): 8.13%
viability, T/C (second compound 0.316 µM, first compound 3 µM): 4.48%
viability, T/C (second compound 1 µM, first compound 0.00949 µM): 13.3%
viability, T/C (second compound 1 µM, first compound 0.03 µM): 9.92%
viability, T/C (second compound 1 µM, first compound 0.0949 µM): 7.16%
viability, T/C (second compound 1 µM, first compound 0.3 µM): 7.46%
viability, T/C (second compound 1 µM, first compound 0.949 µM): 6.08%
viability, T/C (second compound 1 µM, first compound 3 µM): 3.09%
